Experimental data published in patent publication US12070458B2, “Therapeutic agent composition and method of use, for treatment of mild congnitive impairment, depression, and psychological disorders” (priority 2018, dated 2024).

Experiments:
[1] = tested on: patients with major depressive disorder; test: Double-blind, randomized, placebo-controlled, active reference study in patients with major depressive disorder; type: in vivo, human; settings: for change from baseline in MADRS total score, Mean ± SD / MADRS total score, Difference to Placebo: week 6
Description: This randomized, double-blind, fixed-dose, placebo-controlled, active reference study recruited 32 randomized patients in accordance with the principles of Good Clinical Practice [ICH (1996). Harmonized Tripartite Guideline E6: Guideline for Good Clinical Practice (http://www.fda.gov/downloads/drugs/guidancecomplianceregulatoryinformation/gui dances/ucm073122.pdf)] and the Declaration of Helsinki [WMA (1964). Ethical Principles for Medical Research Involving Human Subjects (http://www.wma.net/en/30publications/10policies/b3/). World Medical Association.] Local ethics committees approved the study design and eligible patients gave their written informed consent before participating.
Eligible patients were randomized equally (1:1:1:1) to one of the four treatment arms for a 6-week double-blind treatment period. Randomized patients were given 1-week wallet cards at each visit and were instructed to take two capsules per day, orally, at the same time every day (preferably in the morning). NA-831 was dosed at 20 mg/day or 40 mg/d for 6 week and venlafaxine at 75 mg/d over 6-week treatment period. Efficacy and tolerability were assessed at screening, baseline and after 1, 2, 3, 4, 5, and 6 week. Patients were contacted for a safety follow-up 4 week after the completion visit.
Patients with MDD presenting with a current major depressive episode according to DSM-IV-TR criteria were included in the study if they were an outpatient of either sex, aged from 20 yr to 65 yr, (mean=39.7±8.5) (with a Montgomery—Åsberg Depression Rating Scale (MADRS) (Montgomery & Åsberg, 1979) total score ≥30 at the baseline visit. [Montgomery S Åsberg M (1979). A new depression scale designed to be sensitive to change. British Journal of Psychiatry 134 382-389.https://doi.org/10.1192/bjp.134.4.382]
Patients were evaluated using the MADRS from baseline to week 6. Rater training was undertaken to increase inter-rater reliability, and was supervised by an experienced investigator. Only those investigators who had actively participated in rater training sessions prior to inclusion of patients into the study were allowed to rate patients. Patient ratings were assessed by the same investigator at each visit, whenever possible.
All safety analyses were based on the all-patients-treated set (APT), comprising all randomized patients who took at least one dose of study medication. All efficacy analyses were based on a modified intent-to-treat set (ITT)—the full-analysis set (FAS), comprising all patients in the […] who had at least one valid post-baseline MADRS total score assessment.
Four hypotheses were part of the primary efficacy analysis, which was fully adjusted for multiplicity using a hierarchical testing procedure at the 5% level of significance as long as the previous hypothesis was rejected. The order of testing was: no difference between the 20 mg dose vs. placebo at week 6, no difference between […] at week 6, no difference between 20 mg dose vs. placebo at week 1, and finally no difference between 40 mg dose vs. placebo at week 1. The statistical model was an analysis of covariance (ANCOVA) of the change from baseline in MADRS total score (FAS, LOCF) with treatment and site as fixed factors and the baseline MADRS score as a covariate. The primary efficacy analysis was repeated on observed cases (OC) data, using both an ANCOVA and a mixed model for repeated measurements (MMRM).
All adverse effects (AEs) (including any change in concurrent illnesses or new illnesses) either observed by the investigator or reported spontaneously by the patient were recorded. AEs were coded using the lowest level term according to the Medical Dictionary for Regulatory Activities, version 10.0. As a post-hoc analysis, the safety database was searched at preferred-term and verbatim-term level for possible suicide-related AEs, as described by the FDA [Laughren (2006). Memorandum on Suicidality. (http://www.fda.gov/ohrms/dockets/ac/06/briefing/2006-4272b1-01-fda.pdf)].

NR2B-subtype receptors = target: T1, NR2B-subtype receptors (Mus musculus, UniProt P35438+Q01097); test: NR2B receptor occupancy ex vivo (3H Ro 25-6981) after intravenous administration; type: in vivo, CD-1 mice
T1 construct: from tissue; host or cells: forebrain membrane homogenate of male CD-1 mice
Experimental: In this experiment, 8-10 weeks old male CD-1 mice (n=12) were administered intravenously in a vehicle consisting of 10% dimethylacetamide, 40% PEG-400, 30% hydroxypropyl betacyclodextrin, and 30% water with cyclic Prolyl Glycine (0.10 mg: rill, and the forebrains were harvested 15 minutes post-dosing by decapitation. The brain samples were immediately frozen and stored at −80′ C.
On the following day, the dosed brain samples were thawed on ice for 20-30 minutes followed by homogenization using Polytron for 10 seconds in cold homogenization buffer composed of 50 mM KH2PO4 (pH adjusted to 7.4 with KOH), 1 mM EDTA, 0.005% Triton X 100 and protease inhibitor cocktail (Fischer Scientific). The crude homogenates were further homogenized using a Bounce homogenizer (Thomas Scientific) and the homogenized membrane aliquots from all animals were […] and stored at −80° C. until further use. The whole homogenization process was performed on ice.
For determining occupancy, the membrane homogenates were thawed on ice and then needle homogenized using a 25-gauge needle. […] Non-specific binding was determined using 10 μM Ro 25-6981 added to the wells containing membrane homogenates from vehicle-dosed animals. […]

[2] = tested on: extracellular levels of serotonin (5-HT), noradrenaline, dopamine, acetylcholine and histamine; test: Extracellular neurotransmitter levels in rat prefrontal cortex and hippocampus; settings: in vivo

T1 sequence (Q01097 27-1482, other chains not shown): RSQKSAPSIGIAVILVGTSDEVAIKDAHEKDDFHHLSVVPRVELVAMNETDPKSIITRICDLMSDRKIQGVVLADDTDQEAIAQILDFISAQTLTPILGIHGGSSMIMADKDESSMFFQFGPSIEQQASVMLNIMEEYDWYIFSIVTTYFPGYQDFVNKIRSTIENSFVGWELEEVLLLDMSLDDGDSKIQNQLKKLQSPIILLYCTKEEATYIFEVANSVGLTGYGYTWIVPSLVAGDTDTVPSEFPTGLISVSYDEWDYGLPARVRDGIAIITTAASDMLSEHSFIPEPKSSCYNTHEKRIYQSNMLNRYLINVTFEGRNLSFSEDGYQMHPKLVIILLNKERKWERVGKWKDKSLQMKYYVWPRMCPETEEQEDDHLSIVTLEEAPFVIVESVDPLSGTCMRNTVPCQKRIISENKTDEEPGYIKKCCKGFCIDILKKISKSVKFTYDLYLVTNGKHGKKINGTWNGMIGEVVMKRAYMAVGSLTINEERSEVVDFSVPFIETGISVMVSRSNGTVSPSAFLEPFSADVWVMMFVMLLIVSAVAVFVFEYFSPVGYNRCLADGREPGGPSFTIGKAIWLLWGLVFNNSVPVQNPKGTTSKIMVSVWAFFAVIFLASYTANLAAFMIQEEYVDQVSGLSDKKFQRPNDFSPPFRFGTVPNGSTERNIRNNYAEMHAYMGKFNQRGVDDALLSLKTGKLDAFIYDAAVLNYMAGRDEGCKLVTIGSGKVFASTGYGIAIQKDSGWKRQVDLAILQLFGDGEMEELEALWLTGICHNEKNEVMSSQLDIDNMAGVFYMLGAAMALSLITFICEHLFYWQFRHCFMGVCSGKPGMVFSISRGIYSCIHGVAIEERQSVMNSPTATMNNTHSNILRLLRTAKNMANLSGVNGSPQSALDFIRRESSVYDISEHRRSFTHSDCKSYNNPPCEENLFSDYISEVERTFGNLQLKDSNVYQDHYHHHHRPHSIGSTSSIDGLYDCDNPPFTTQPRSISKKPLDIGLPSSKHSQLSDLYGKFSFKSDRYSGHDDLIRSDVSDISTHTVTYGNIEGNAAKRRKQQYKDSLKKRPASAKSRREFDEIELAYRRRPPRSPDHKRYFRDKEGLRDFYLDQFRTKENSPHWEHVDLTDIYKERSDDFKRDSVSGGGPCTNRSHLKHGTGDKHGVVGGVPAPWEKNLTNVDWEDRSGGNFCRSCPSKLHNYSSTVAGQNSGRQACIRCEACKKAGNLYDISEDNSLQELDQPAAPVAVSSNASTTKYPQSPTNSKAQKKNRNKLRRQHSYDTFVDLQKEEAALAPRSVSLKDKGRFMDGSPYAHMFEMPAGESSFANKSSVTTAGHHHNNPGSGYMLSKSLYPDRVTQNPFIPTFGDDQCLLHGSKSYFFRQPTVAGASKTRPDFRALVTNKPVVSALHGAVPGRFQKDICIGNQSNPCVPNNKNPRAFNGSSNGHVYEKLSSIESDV

receptor occupancy at 1 mg/kg (NR2B-subtype receptors; 1 mg/Kg i.v., at the end of FST): 73%
receptor occupancy at 3 mg/kg (NR2B-subtype receptors; 3 mg/Kg i.v., forebrains harvested 15 minutes post-dosing): 93%
Structure (SMILES): O=C1NCC(=O)N2CCC[C@@H]12 [cPG, cyclic Prolyl Glycine]
change from baseline in MADRS total score, Mean ± SD ([1]; LOCF, ANCOVA, 20 mg/day orally): −22.4 ± 1.0
change from baseline in MADRS total score, Mean ± SD ([1]; LOCF, ANCOVA, 40 mg/d orally): −23.2 ± 1.0
change from baseline in MADRS total score, Mean ± SD ([1]; MMRM, 20 mg/day orally): −22.3 ± 0.9
change from baseline in MADRS total score, Mean ± SD ([1]; MMRM, 40 mg/d orally): −24.9 ± 1.1
MADRS total score, Difference to Placebo ([1]; OC, ANCOVA, 20 mg/day orally): −5.7 ± 1.3
change from baseline in MADRS total score, Mean ± SD ([1]; OC, ANCOVA, 20 mg/day orally): −22.3 ± 0.9
MADRS total score, Difference to Placebo ([1]; OC, ANCOVA, 40 mg/d orally): −7.8 ± 1.3
change from baseline in MADRS total score, Mean ± SD ([1]; OC, ANCOVA, 40 mg/d orally): −24.4 ± 1.0
tolerability ([1]; human, in vivo): well tolerated
extracellular levels of serotonin (5-HT), noradrenaline, dopamine, acetylcholine and histamine [2]: increases
